Earlier results as cited in US8568753B2, “Delivery system” (Starpharma Pty Limited, priority 2005, dated 2013).

System: herpes simplex virus type 2 (HSV-2), Strain G
Conditions: previous studies

In the case of nonoxynol-9, the “relative susceptibility to HSV-2 infection vs control animals” value is given as 29.7 times and the “animals infected with HSV-2” value (low-dose inoculum) is given as 29 out of 42.
